Laboratory results as given in PubChem BioAssay AID179 (DTP/NCI, 2004).
The source made the active and inactive calls.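 How the source made its calls: active means compounds giving half or more protection of infected cells from virus-caused growth loss, again on retest; inactive means the rest.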

System: CEM cells HIV-1 protection, formazan growth assay
Assay: NCI AIDS Antiviral Assay
Settings: for IC50: measured here: growth of uninfected CEM cells
Summary of the method: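 Five concentrations of each compound were applied to infected and uninfected human CEM cells. Protection from HIV-1 was judged from growth measured with a soluble formazan assay.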

Compound	EC50	IC50	outcome
CC(C(=O)N1C(=O)N(C(=O)C(C)C(O)c2ccccc2)C2CCCCC21)C(O)c1ccccc1 (centres undefined)	> 200 µM	120 µM	–
COc1ccc(N=C/C=C/Nc2ccc(OC)cc2)cc1	> 200 µM	7.41 µM	–
C=CC(=O)N1C/C(=C\c2ccc(F)cc2)C(=O)/C(=C/c2ccc(F)cc2)C1	> 0.2 µM	0.162 µM	–
NC(N)=N/N=C(\c1ccccc1)C(O)c1ccccc1 (centres undefined)	> 200 µM	107 µM	–
Cc1ccc(/C=C2\CN(C)CC3C2=NC(=S)NC3c2ccc(C)cc2)cc1 (centres undefined)	> 200 µM	24.5 µM	–
C[n+]1c2ccccc2n2c3ccccc3c(NCc3ccco3)c(C#N)c21	> 20 µM	1.48 µM	–
NC(=O)c1n[nH]n(-c2ccccc2)c1=O	> 200 µM	> 200 µM	–
Cn1c2ccccc2c2ccc3c(c21)C(=O)C(c1ccccc1)=CC3=O	> 40.7 µM	29.5 µM	–
NC(N)=NCCN1CCCCCc2ccccc21	> 200 µM	20.9 µM	–
CC1=NC(=Cc2ccc(O)cc2)C(=O)N1n1c(-c2ccccc2)nc2ccccc2c1=O	> 200 µM	21.9 µM	–
COC1=C(OC)C(O)(c2ccccc2)C1=O (centres undefined)	–	–	inactive
Fc1ccc(CSc2cnnc(SCc3ccc(F)cc3)c2SCc2ccc(F)cc2)cc1	> 200 µM	39.8 µM	–
CN(C)c1nc(N)nc(Nc2ccc(Br)cc2)c1N=O	> 200 µM	37.2 µM	–
S=C=Nc1ccc(SSc2ccc(N=C=S)cc2)cc1	> 13.5 µM	11.2 µM	–
CCOC(=O)C1(C)CCCc2sc(N)c(C#N)c21 (centres undefined)	> 200 µM	> 200 µM	–
CC(=NC1C2CC3CC(C2)CC1C3)c1ccc(N=NC2C(=O)NN=C2C)cc1 (centres undefined)	> 10 µM	> 10 µM	–
CCCSCC(P(=O)(O)O)P(=O)(O)O	–	–	inactive
COC1/C=C/OC2(C)Oc3c(C)c(O)c4c(O)c(cc(OCC(=O)N(C)C)c4c3C2=O)NC(=O)/C(C)=C/C=C/C(C)C(O)C(C)C(O)C(C)C(OC(C)=O)C1C (centres undefined)	> 200 µM	31.6 µM	–
COc1ccc(-c2c(C)c(C)[nH]c(=O)c2C(=O)O)c(OCc2ccccc2)c1OC	–	–	inactive
CC(C)CCC[C@@H](C)C1CCC2[C@@H]3CC=C4C[C@@H](OP(=O)(O)O)CC[C@]4(C)C3CC[C@@]21C (some centres undefined)	> 28.2 µM	> 28.2 µM	–
Nc1cc(Cl)ccc1N1C(=O)CCC1=O	166 µM	> 200 µM	–
CN1CCN(CCCN2c3ccccc3Sc3ccc(Cl)cc32)CC1	> 200 µM	3.72 µM	–
O=C1c2c([N+](=O)[O-])cc(S(=O)(=O)O)c(O)c2C(=O)c2c([N+](=O)[O-])cc(S(=O)(=O)O)c(O)c21	–	–	inactive

Compound	EC50	IC50	outcome
C=C(C)C1CC[C@@](C)(O)[C@H](C#N)C1 (some centres undefined)	> 200 µM	> 200 µM	–
N#CC1(Cc2ccc(N)cc2)c2ccccc2C=CN1C(=O)c1ccccc1 (centres undefined)	–	–	inactive
OCC1OC(n2cnc3c(Cl)nc(Nc4ccc(Cl)c(Cl)c4)nc32)CC1O (centres undefined)	> 200 µM	3.72 µM	–
CC(=O)OC1C[C@@H](C)C2(CC(c3ccoc3)OC2=O)C2CCC(O)C3(CO3)C12CO (some centres undefined)	> 200 µM	> 200 µM	–
CCN(CC)CC[NH-].O=C([O-])[O-].O=C([O-])[O-].[Co+3].[K+]	> 200 µM	18.6 µM	–
Cc1cc2c(C(C)C)c(O)c(O)c(C=Nc3ccc4ccccc4c3)c2c(O)c1-c1c(C)cc2c(C(C)C)c(O)c(O)c(C=Nc3ccc4ccccc4c3)c2c1O	10.7 µM	22.9 µM	–
CN1C(CC(O)c2ccccc2)CCCC1CC(O)(c1ccccc1)c1ccccc1 (centres undefined)	> 107 µM	22.9 µM	–
COc1ccc(CCN(C)CCCC(C#N)(c2ccc(OC)c(OC)c2)C(C)C)cc1OC (centres undefined)	> 200 µM	> 200 µM	–
CNc1ccc(Cl)cc1C(=O)N1CCC[C@H]1CO	> 200 µM	> 200 µM	–
Cn1cc2ccccc2c1-c1nc(N)nc(F)n1	> 107 µM	64.6 µM	–
O=c1cn[nH]c2nc3ccccc3n12	> 200 µM	> 200 µM	–
c1cc(CSSCc2ccncc2)ccn1	> 200 µM	0.891 µM	–
C=CCNC1=C2C[C@@H](C)C[C@@H](OC)C(OC(=O)CCCN(C)C)[C@H](C)/C=C(\C)[C@@H](OC(N)=O)[C@H](OC)/C=C\C=C(/C)C(=O)NC(=CC1=O)C2=O (some centres undefined)	> 200 µM	11 µM	–
C/C=C(/CCC1NCCc2c1[nH]c1ccccc21)[Si](C)(C)C (centres undefined)	–	–	inactive
CC(C)(C)OC(=O)N(CCCCN(CCCNC(=O)C(F)(F)F)C(=O)OC(C)(C)C)CCCNC(=O)C(F)(F)F	–	–	inactive
C[C@]12CCc3nonc3C1CC[C@@H]1C2CC[C@@]2(C)C1CC[C@@H]2O (some centres undefined)	> 214 µM	174 µM	–
CCc1cccc(C(C)C)c1NC(=O)C(=O)C(CC(=O)Nc1ccc(Cl)c(Cl)c1)C(=O)OC (centres undefined)	> 10.7 µM	> 10.7 µM	–
CC(=O)Nc1ccc(S(=O)(=O)N/N=C/C(=O)O)cc1	> 200 µM	> 200 µM	–
CO[C@](C(=O)OC[C@H]1[C@@H](COC(C)=O)[C@@H]2O[C@H]1c1cc3c(cc12)OCO3)(c1ccccc1)C(F)(F)F	> 200 µM	7.59 µM	–
O=C1C=C(c2c(-c3ccccc3)[nH]c3ccccc23)C(=O)N1c1ccccc1	> 200 µM	15.5 µM	–
COCOC1/C=C/CCCCC(=O)C(C)C#CC1 (centres undefined)	> 200 µM	7.24 µM	–
Cc1cc([N+](=O)[O-])c2c(c1)P(=O)(O)c1cc(C)cc([N+](=O)[O-])c1O2	> 200 µM	> 200 µM	–
CCCCC#CCC(C(=O)O)C(=O)O	> 1260 µM	> 1260 µM	–

Compound	EC50	IC50	outcome
O=C(N1CCCC1)C1(c2cccc(Cl)c2)CCNCC1	> 200 µM	129 µM	–
N=C(N)SCc1ccc(N=C=S)cc1	> 200 µM	83.2 µM	–
CC(=O)OC1CN2CC[C@H](O)C2C(O)[C@@H]1O (some centres undefined)	41.7 µM	1070 µM	–
Cc1nc(C)c(C(=O)NNC(=O)C[N+](C)(C)C)cc1C(=O)NNC(=O)C[N+](C)(C)C	> 200 µM	> 200 µM	–
COc1cc2c(SCCN(C)C)nc3ccccc3c2c2ccccc12	–	–	inactive
Cc1ccc(N=NC2=C3Sc4ccccc4N=C2N(c2ccc(Br)cc2)C(=S)N3c2ccc(Cl)cc2)cc1	> 45.7 µM	> 45.7 µM	–
CC(C)/C(Cl)=N/OC(=O)Nc1ccc(F)c(Cl)c1	> 20 µM	3.31 µM	–
FC(F)(F)C(C1=NC(C(F)(F)F)(C(F)(F)F)N=C(N2CCOCC2)O1)C(F)(F)F	> 2 µM	> 2 µM	–
CC(=O)Oc1cc(OC(C)=O)c2c(c1C)CC[C@@H]1[C@@H]2CC[C@]2(C)[C@@H](OC(C)=O)CC[C@@H]12	> 200 µM	18.2 µM	–
Cc1ccc([S@](=O)c2occc2C=O)cc1	> 20 µM	1.82 µM	–
CCc1n[nH]c(=O)n1-c1ccncc1	> 200 µM	> 200 µM	–
N#CC1(C#N)NC(c2ccsc2)C(C#N)(C#N)NC1c1ccsc1 (centres undefined)	> 200 µM	115 µM	–
CCOC(=O)Cc1ccc(Nc2nc3ccccc3nc2C(=O)OCC)cc1	91.2 µM	> 200 µM	–
CC(Cn1c2c3ccccc3ccc2c2oc(=O)c3ccccc3c21)N(C)C (centres undefined)	> 3.89 µM	> 3.89 µM	–
CC1CCC2(OC2(C)C)C(=O)C1 (centres undefined)	> 200 µM	> 200 µM	–
CC(=O)Oc1cc2oc(=O)cc(C)c2cc1OC(C)=O	–	–	inactive
Fc1c(F)c(F)c(S)c(F)c1F	–	–	active
CC(=O)c1cc(I)c(O)c2ncccc12	> 79.4 µM	1.45 µM	–
CCn1nc(C)c2c1C(=O)NC(C)C(=O)N2 (centres undefined)	> 200 µM	> 200 µM	–
CCCCN1C(=O)C(=O)N(c2ccccc2C(F)(F)F)C1=O	> 200 µM	158 µM	–
O=C1NN=C(C2CCCCC2)C12CCCCC2	> 214 µM	67.6 µM	–
COc1cc2nncc(Sc3cnnc4ccccc34)c2cc1OC	> 61.7 µM	7.59 µM	–
CCOC(=O)c1cc(Br)c(-c2onc(C)c2Br)[nH]1	> 200 µM	> 200 µM	–

Compound	EC50	IC50	outcome
O=C(O)/N=N\C(=O)O	> 151 µM	> 151 µM	–
CN1C(=O)C(C)(O)c2ccccc21 (centres undefined)	> 1410 µM	550 µM	–
S=c1[nH]nc(Cn2c3ccc(Br)cc3c3nc4ccccc4nc32)n1C1CCCCC1	> 200 µM	51.3 µM	–
Cc1ccc(OCC(=O)N2N=C(c3ccccc3)CC2(O)c2ccccc2)cc1 (centres undefined)	> 25.7 µM	> 25.7 µM	–
CSc1nc(C)c(C(=O)CCN2CCOCC2)s1	> 200 µM	10 µM	–
CN1CCN(CCSc2nnc(-c3cc4ccccc4s3)c3ccccc23)CC1	> 162 µM	12.9 µM	–
COc1cccc(/C=C2/Sc3scc(-c4ccccc4)[n+]3C2=O)c1O	> 200 µM	11.7 µM	–
Cc1cc2c(C(C)C)c(O)c(O)c(C=NCCc3ccccc3)c2c(O)c1-c1c(C)cc2c(C(C)C)c(O)c(O)c(C=NCCc3ccccc3)c2c1O	> 200 µM	8.71 µM	–
C[S+](C)CCOC(=O)C(=[N+]=[N-])c1ccc([N+](=O)[O-])cc1	–	–	inactive
N#CC(C#N)=Cc1ccc2c(c1)OC(Cl)O2 (centres undefined)	–	–	inactive
CCOP(=O)(OCC)C(C)(CC)NC(=O)C(C(F)(F)F)C(F)(F)F (centres undefined)	> 200 µM	105 µM	inactive
O=c1[nH]nc(Cc2ccccc2)n1C1CCCC1	> 200 µM	> 200 µM	–
CCOC(=O)/C(C#N)=C/c1ccc(SCc2ccco2)c([N+](=O)[O-])c1	> 200 µM	> 200 µM	–
O=C(NNc1nc2ccccc2n2cccc12)Nc1ccc(Br)cn1	> 200 µM	46.8 µM	–
OCC1OC(n2cnc3cncnc32)C(O)C1O (centres undefined)	–	–	inactive
CCCCN(CCCC)C(=O)C(=O)CC(=O)c1ccc(Br)cc1	–	–	inactive
CC(=O)Nc1c(S(=O)(=O)c2ccccc2)c(C)c(C)n1CCN(C)C	> 200 µM	> 200 µM	–
O=C1CSC(c2ccc(Cl)cc2)N1c1ccc(-c2ccc(-n3c(-c4ccccc4)nc4ccccc4c3=O)cc2)cc1 (centres undefined)	> 200 µM	47.9 µM	–
CCC(=O)c1cn(C)c(=O)c2ccccc12	–	–	inactive
O=C(/N=C/c1c(O)c2ccccc2oc1=O)Nc1ccccc1	> 17 µM	> 17 µM	–
